≈ marks a conversion by molar mass, not a printed value. Calls of active or inactive are those of the source. The calls are words filed in the database; no cut-off is given here.
How the values were obtained:
Candida albicans [1] = test: Antifungal activity against Candida albicans after 24 hrs by two-fold broth microdilution assay; type: functional
Candida tropicalis [2] = test: Antifungal activity against Candida tropicalis after 24 hrs by two-fold broth microdilution assay; type: functional
Aspergillus fumigatus [3] = test: Antifungal activity against Aspergillus fumigatus after 24 hrs by two-fold broth microdilution assay; type: functional
Candida albicans [4] = test: Antifungal activity against Candida albicans ATCC 90023 after 24 hrs by two-fold broth microdilution assay; type: functional; conditions: ATCC 90023, 24 h
Candida parapsilosis [5] = test: Antifungal activity against Candida parapsilosis ATCC 22019 after 24 hrs by two-fold broth microdilution assay; type: functional; conditions: Lodderomyces parapsilosis, ATCC 22019, 24 h
Candida albicans [6] = test: Antifungal activity against Candida albicans assessed as ratio of MIC after and before 10 serial passages; type: functional
Candida albicans [7] = test: Antifungal activity against Candida albicans at MIC after 10 serial passages; type: functional, organism-based
Candida tropicalis [8] = test: Potency index, ratio of fluconazole MIC to test compound MIC for Candida tropicalis; type: functional
Candida parapsilosis [9] = test: Potency index, ratio of fluconazole MIC to test compound MIC for Candida parapsilosis ATCC 22019; type: functional
Candida albicans [10] = test: Fungicidal activity against Candida albicans incubated for 24 hrs followed by plating onto tryptic soy agar medium and measured after 24 hrs by broth microdilution method; type: functional
Candida tropicalis [11] = test: Fungicidal activity against Candida tropicalis incubated for 24 hrs followed by plating onto tryptic soy agar medium and measured after 24 hrs by broth microdilution method; type: functional
Candida parapsilosis [12] = test: Fungicidal activity against Candida parapsilosis ATCC 22019 incubated for 24 hrs followed by plating onto tryptic soy agar medium and measured after 24 hrs by broth microdilution method; type: functional; conditions: Lodderomyces parapsilosis, ATCC 22019, 24 h
Candida albicans [13] = test: Ratio of MFC to MIC for Candida albicans; type: functional
Candida tropicalis [14] = test: Ratio of MFC to MIC for Candida tropicalis; type: functional
Candida parapsilosis [15] = test: Ratio of MFC to MIC for Candida parapsilosis ATCC 22019; type: functional
Candida albicans [16] = test: Synergistic antifungal activity against Candida albicans after 18 hrs in presence of fluconazole by checkerboard assay; type: functional
Candida tropicalis [17] = test: Synergistic antifungal activity against Candida tropicalis after 18 hrs in presence of fluconazole by checkerboard assay; type: functional
Aspergillus fumigatus [18] = test: Synergistic antifungal activity against Aspergillus fumigatus after 18 hrs in presence of fluconazole by checkerboard assay; type: functional
Candida albicans [19] = test: Synergistic antifungal activity against Candida albicans assessed as FIC index after 18 hrs in presence of fluconazole by checkerboard assay; type: functional
Candida tropicalis [20] = test: Synergistic antifungal activity against Candida tropicalis assessed as FIC index after 18 hrs in presence of fluconazole by checkerboard assay; type: functional
Aspergillus fumigatus [21] = test: Synergistic antifungal activity against Aspergillus fumigatus assessed as FIC index after 18 hrs in presence of fluconazole by checkerboard assay; type: functional
Candida albicans [22] = test: Potentiation of fluconazole-induced antifungal activity against Candida albicans at MIC after 16 serial passages; type: functional, organism-based
Candida albicans [23] = test: Induction of cytoplasmic membrane depolarization in Candida albicans measured for 300 secs by DiSC3-5 dye based fluorescence spectral analysis; type: functional, organism-based
Calf thymus DNA [24] = test: Binding affinity to calf thymus DNA assessed as hypochromic shift up to 2 x 10^-5mol/L by UV absorption spectral analysis; type: nucleic-acid assay; conditions: Bos taurus
Calf thymus DNA [25] = test: Binding affinity to calf thymus DNA by UV absorption spectral analysis; type: nucleic-acid assay; conditions: Bos taurus
Calf thymus DNA [26] = test: Displacement of neutral dye from calf thymus DNA up to 2 x 10^-5mol/L by UV absorption spectra analysis; type: nucleic-acid assay; conditions: Bos taurus
Calf thymus DNA [27] = test: Binding affinity to calf thymus DNA assessed as Stern-Volmer quenching constant at 1 x 10^-5 mol/L in presence of potassium iodide by fluorescence assay (reference value: 12.9 L/mol); type: nucleic-acid assay; conditions: Bos taurus
Albumin = Albumin (Homo sapiens, UniProt P02768); test: Binding affinity to human serum albumin assessed as increase in peak intensity at tryptophan/tyrosine/phenylalanine residue up to 2 x 10^-5mol/L by UV-vis absorption spectra analysis; type: ADME; conditions: isolated protein
Sequence of Albumin (P02768 whole entry): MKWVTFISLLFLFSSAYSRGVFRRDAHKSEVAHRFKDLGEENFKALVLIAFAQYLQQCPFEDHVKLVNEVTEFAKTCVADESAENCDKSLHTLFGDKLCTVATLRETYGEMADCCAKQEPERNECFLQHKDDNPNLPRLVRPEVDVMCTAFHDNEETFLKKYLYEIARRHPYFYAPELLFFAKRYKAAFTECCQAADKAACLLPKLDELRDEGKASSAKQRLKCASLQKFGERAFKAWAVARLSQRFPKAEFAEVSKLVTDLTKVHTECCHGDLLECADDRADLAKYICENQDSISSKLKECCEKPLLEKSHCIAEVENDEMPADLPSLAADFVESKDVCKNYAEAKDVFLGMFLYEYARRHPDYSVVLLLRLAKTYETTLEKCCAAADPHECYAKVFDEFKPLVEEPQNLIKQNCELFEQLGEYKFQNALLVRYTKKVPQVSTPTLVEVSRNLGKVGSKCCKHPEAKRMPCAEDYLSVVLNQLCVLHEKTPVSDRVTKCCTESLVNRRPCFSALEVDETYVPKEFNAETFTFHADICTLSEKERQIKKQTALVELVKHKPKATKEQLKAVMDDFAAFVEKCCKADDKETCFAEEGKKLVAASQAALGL

Staphylococcus aureus [28] = test: Antibacterial activity against Staphylococcus aureus after 24 hrs by micro broth dilution method; type: functional
Staphylococcus aureus [29] = test: Antibacterial activity against methicillin-resistant Staphylococcus aureus after 24 hrs by micro broth dilution method; type: functional
Enterococcus faecalis = test: Antibacterial activity against Enterococcus faecalis after 24 hrs by micro broth dilution method; type: functional
Staphylococcus aureus [30] = test: Antibacterial activity against Staphylococcus aureus ATCC 25923 after 24 hrs by micro broth dilution method; type: functional; conditions: ATCC 25923, 24 h
Staphylococcus aureus [31] = test: Antibacterial activity against Staphylococcus aureus ATCC 29213 after 24 hrs by micro broth dilution method; type: functional; conditions: ATCC 29213, 24 h
Klebsiella pneumoniae = test: Antibacterial activity against Klebsiella pneumoniae after 24 hrs by micro broth dilution method; type: functional
Escherichia coli [32] = test: Antibacterial activity against Escherichia coli after 24 hrs by micro broth dilution method; type: functional
Acinetobacter baumannii = test: Antibacterial activity against Acinetobacter baumannii after 24 hrs by micro broth dilution method; type: functional
Pseudomonas aeruginosa [33] = test: Antibacterial activity against Pseudomonas aeruginosa after 24 hrs by micro broth dilution method; type: functional
Pseudomonas aeruginosa [34] = test: Antibacterial activity against Pseudomonas aeruginosa ATCC 27853 after 24 hrs by micro broth dilution method; type: functional; conditions: ATCC 27853, 24 h
Escherichia coli [35] = test: Antibacterial activity against Escherichia coli ATCC 25922 after 24 hrs by micro broth dilution method; type: functional; conditions: ATCC 25922, 24 h

With `OC(Cn1cncn1)(Cn1cncn1)c1ccc(F)cc1F` [FLUCONAZOLE] the MIC (Candida albicans [1]) was 4 µg/mL (≈ 13.1 µM), the MIC (Candida tropicalis [2]) was 8 µg/mL (≈ 26.1 µM) and the MIC (Aspergillus fumigatus [3]) was 256 µg/mL (≈ 836 µM). It also gave an MIC (Candida albicans [4]) of 2 µg/mL (≈ 6.53 µM), an MIC (Candida parapsilosis [5]) of 4 µg/mL (≈ 13.1 µM) and a Ratio (Candida albicans [6]) of 8.

`OC(Cn1cncn1)(Cn1c2ccc(Br)cc2c2cc(Br)ccc21)c1ccc(F)cc1F` (stereo not given) was tested, and the Activity (Candida albicans [7]) was “Active”, the MIC (Candida albicans [1]) was 4 µg/mL (≈ 7.11 µM) and the MIC (Candida tropicalis [2]) was 4 µg/mL (≈ 7.11 µM). The MIC (Aspergillus fumigatus [3]) was 32 µg/mL (≈ 56.9 µM), the MIC (Candida albicans [4]) was 8 µg/mL (≈ 14.2 µM) and the MIC (Candida parapsilosis [5]) was 2 µg/mL (≈ 3.56 µM). The Ratio (Candida tropicalis [8]) was 2, the Ratio (Candida parapsilosis [9]) was 2 and the MFC (Candida albicans [10]) was 8 µg/mL (≈ 14.2 µM). It also gave an MFC (Candida tropicalis [11]) of 8 µg/mL (≈ 14.2 µM), an MFC (Candida parapsilosis [12]) of 4 µg/mL (≈ 7.11 µM) and a Ratio (Candida albicans [13]) of 2. It also gave a Ratio (Candida tropicalis [14]) of 2, a Ratio (Candida parapsilosis [15]) of 2 and an MIC (Candida albicans [16]) of 0.5 µg/mL. For the same compound, the MIC (Candida tropicalis [17]) was 2 µg/mL, the MIC (Aspergillus fumigatus [18]) was 16 µg/mL and the “fractional inhibitory concentration index (FICI)” value (Candida albicans [19]) was 0.25. The “fractional inhibitory concentration index (FICI)” value (Candida tropicalis [20]) was 0.75, the “fractional inhibitory concentration index (FICI)” value (Aspergillus fumigatus [21]) was 0.56 and the Activity (Candida albicans [22]) was “Active”. For the same compound, the Activity (Candida albicans [23]) was “Dose-dependent effect”, the Activity (Calf thymus DNA [24]) was “Active” and the K (Calf thymus DNA [25]) was 7.8 ×10³ L/mol. The Activity (Calf thymus DNA [26]) was “Active”, the KSV (Calf thymus DNA [27]) was 10 L/mol and the Activity (Albumin) was “Active”. It also gave an MIC (Staphylococcus aureus [28]) of 64 µg/mL (≈ 114 µM), an MIC (Staphylococcus aureus [29]) of 4 µg/mL (≈ 7.11 µM) and an MIC (Enterococcus faecalis) of 32 µg/mL (≈ 56.9 µM). For the same compound, the MIC (Staphylococcus aureus [30]) was 32 µg/mL (≈ 56.9 µM), the MIC (Staphylococcus aureus [31]) was 16 µg/mL (≈ 28.5 µM) and the MIC (Klebsiella pneumoniae) was 128 µg/mL (≈ 228 µM). It also gave an MIC (Escherichia coli [32]) of 16 µg/mL (≈ 28.5 µM), an MIC (Acinetobacter baumannii) of 128 µg/mL (≈ 228 µM) and an MIC (Pseudomonas aeruginosa [33]) of 64 µg/mL (≈ 114 µM). For the same compound, the MIC (Pseudomonas aeruginosa [34]) was 16 µg/mL (≈ 28.5 µM) and the MIC (Escherichia coli [35]) was 32 µg/mL (≈ 56.9 µM).

`OC(Cn1cncn1)(Cn1c2ccccc2c2ccc(Br)cc21)c1ccc(F)cc1F` (stereo not given) showed an MIC (Candida albicans [1]) of 16 µg/mL (≈ 33.1 µM), an MIC (Candida tropicalis [2]) of 4 µg/mL (≈ 8.28 µM) and an MIC (Aspergillus fumigatus [3]) of 64 µg/mL (≈ 132 µM). For the same compound, the MIC (Candida albicans [4]) was 16 µg/mL (≈ 33.1 µM), the MIC (Candida parapsilosis [5]) was 16 µg/mL (≈ 33.1 µM) and the MFC (Candida albicans [10]) was 16 µg/mL (≈ 33.1 µM). The MFC (Candida tropicalis [11]) was 4 µg/mL (≈ 8.28 µM), the MFC (Candida parapsilosis [12]) was 32 µg/mL (≈ 66.2 µM) and the Ratio (Candida albicans [13]) was 1. For the same compound, the Ratio (Candida tropicalis [14]) was 1, the Ratio (Candida parapsilosis [15]) was 2 and the MIC (Candida albicans [16]) was 4 µg/mL. The MIC (Candida tropicalis [17]) was 4 µg/mL, the MIC (Aspergillus fumigatus [18]) was 16 µg/mL and the “fractional inhibitory concentration index (FICI)” value (Candida albicans [19]) was 1.25. For the same compound, the “fractional inhibitory concentration index (FICI)” value (Candida tropicalis [20]) was 1.5, the “fractional inhibitory concentration index (FICI)” value (Aspergillus fumigatus [21]) was 0.32 and the MIC (Staphylococcus aureus [28]) was 64 µg/mL (≈ 132 µM). The MIC (Staphylococcus aureus [29]) was 16 µg/mL (≈ 33.1 µM), the MIC (Enterococcus faecalis) was 32 µg/mL (≈ 66.2 µM) and the MIC (Staphylococcus aureus [30]) was 16 µg/mL (≈ 33.1 µM). It also gave an MIC (Staphylococcus aureus [31]) of 32 µg/mL (≈ 66.2 µM), an MIC (Klebsiella pneumoniae) of 128 µg/mL (≈ 265 µM) and an MIC (Escherichia coli [32]) of 64 µg/mL (≈ 132 µM). It also gave an MIC (Acinetobacter baumannii) of 64 µg/mL (≈ 132 µM), an MIC (Pseudomonas aeruginosa [33]) of 64 µg/mL (≈ 132 µM) and an MIC (Pseudomonas aeruginosa [34]) of 128 µg/mL (≈ 265 µM). The MIC (Escherichia coli [35]) was 64 µg/mL (≈ 132 µM).

Compound `OC(Cn1cncn1)(Cn1c2ccccc2c2ccccc21)c1ccc(F)cc1F` (stereo not given) has an MIC (Candida albicans [1]) of 32 µg/mL (≈ 79.1 µM), an MIC (Candida tropicalis [2]) of 8 µg/mL (≈ 19.8 µM) and an MIC (Aspergillus fumigatus [3]) of 128 µg/mL (≈ 317 µM). The MIC (Candida albicans [4]) was 16 µg/mL (≈ 39.6 µM), the MIC (Candida parapsilosis [5]) was 8 µg/mL (≈ 19.8 µM) and the MFC (Candida albicans [10]) was 32 µg/mL (≈ 79.1 µM). The MFC (Candida tropicalis [11]) was 16 µg/mL (≈ 39.6 µM), the MFC (Candida parapsilosis [12]) was 32 µg/mL (≈ 79.1 µM) and the Ratio (Candida albicans [13]) was 1. It also gave a Ratio (Candida tropicalis [14]) of 2, a Ratio (Candida parapsilosis [15]) of 4 and an MIC (Candida albicans [16]) of 2 µg/mL. The MIC (Candida tropicalis [17]) was 4 µg/mL, the MIC (Aspergillus fumigatus [18]) was 32 µg/mL and the “fractional inhibitory concentration index (FICI)” value (Candida albicans [19]) was 0.56. For the same compound, the “fractional inhibitory concentration index (FICI)” value (Candida tropicalis [20]) was 1, the “fractional inhibitory concentration index (FICI)” value (Aspergillus fumigatus [21]) was 0.37 and the MIC (Staphylococcus aureus [28]) was 64 µg/mL (≈ 158 µM). The MIC (Staphylococcus aureus [29]) was 64 µg/mL (≈ 158 µM), the MIC (Enterococcus faecalis) was 16 µg/mL (≈ 39.6 µM) and the MIC (Staphylococcus aureus [30]) was 32 µg/mL (≈ 79.1 µM). The MIC (Staphylococcus aureus [31]) was 32 µg/mL (≈ 79.1 µM), the MIC (Klebsiella pneumoniae) was 64 µg/mL (≈ 158 µM) and the MIC (Escherichia coli [32]) was 128 µg/mL (≈ 317 µM). For the same compound, the MIC (Acinetobacter baumannii) was 128 µg/mL (≈ 317 µM), the MIC (Pseudomonas aeruginosa [33]) was 128 µg/mL (≈ 317 µM) and the MIC (Pseudomonas aeruginosa [34]) was 256 µg/mL (≈ 633 µM). It also gave an MIC (Escherichia coli [35]) of 128 µg/mL (≈ 317 µM).

Source: ChEMBL document CHEMBL4270534, “Novel carbazole-triazole conjugates as DNA-targeting membrane active potentiators against clinical isolated fungi” (Eur J Med Chem, 2018)
